Laboratory results as given in BindingDB's records for doi:10.1021/jm800355c (Saarland University, 2008).

Target: T1, Cytochrome P450 11B1, mitochondrial (Homo sapiens, UniProt P15538)
T1 sequence (P15538 whole entry): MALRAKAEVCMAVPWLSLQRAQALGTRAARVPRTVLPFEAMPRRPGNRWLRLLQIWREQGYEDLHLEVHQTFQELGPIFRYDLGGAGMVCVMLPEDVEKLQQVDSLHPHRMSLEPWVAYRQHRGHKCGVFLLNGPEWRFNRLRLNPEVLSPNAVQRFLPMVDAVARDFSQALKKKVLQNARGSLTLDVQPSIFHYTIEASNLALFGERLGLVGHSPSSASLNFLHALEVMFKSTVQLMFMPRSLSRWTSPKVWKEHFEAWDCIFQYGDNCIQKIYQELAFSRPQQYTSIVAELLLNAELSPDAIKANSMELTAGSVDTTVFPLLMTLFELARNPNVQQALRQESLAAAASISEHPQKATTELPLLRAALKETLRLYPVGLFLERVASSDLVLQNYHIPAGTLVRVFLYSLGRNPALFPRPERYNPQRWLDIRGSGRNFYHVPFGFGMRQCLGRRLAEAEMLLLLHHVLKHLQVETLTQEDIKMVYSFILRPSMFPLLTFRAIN
Assay: CYP11B1 Inhibition Assay
Description: The enzyme activity was assayed by monitoring the conversion of deoxycorticosterone to corticosterone in the presence of inhibitor compounds. The product formation was monitored by HPTLC using a phosphoimager system.

- IC50: 1610 nM
Compound: C[C@]12CC[C@H](O)CC1=CC[C@@H]1[C@@H]2CC[C@]2(C)C(c3cccnc3)=CC[C@@H]12 [ABT]
